ChEMBL document CHEMBL1135116, “Heterocyclic nucleoside analogues: design and synthesis of antiviral, modified nucleosides containing isoxazole heterocycles” (Bioorg Med Chem Lett, 2002)
Converted amounts (≈) assume the structure as drawn.

System: Coxsackievirus B3
Assay: Tested for its anti-polio activity against Coxsackie B virus type-3
Assay type: functional, organism-based
Details: Enterovirus B

First: CC(C)[C@H](NC(=O)OC(C)(C)C)c1cc(Cn2ccc(=O)n(C(=O)c3ccccc3)c2=O)on1
Second: Cc1cn(Cc2cc([C@H](Cc3ccccc3)NC(=O)OC(C)(C)C)no2)c(=O)n(C(=O)c2ccccc2)c1=O
The EC50 of the first is 9.3-fold higher: 98.1 µg/mL (≈ 209 µM) for the first, 10.6 µg/mL (≈ 20 µM) for the second.

`NC(=O)c1ncn([C@@H]2O[C@H](CO)[C@@H](O)[C@H]2O)n1` [RIBAVIRIN] was tested, and the EC50 was 92.5 µg/mL (≈ 379 µM).

System: Coxsackievirus B3
Assay: Selectivity index as the ratio of CC50/EC50 against Coxsackie B virus type-3
Assay type: functional
Details: not given

Compared with `CC(C)[C@H](NC(=O)OC(C)(C)C)c1cc(Cn2ccc(=O)n(C(=O)c3ccccc3)c2=O)on1`, `Cc1cn(Cc2cc([C@H](Cc3ccccc3)NC(=O)OC(C)(C)C)no2)c(=O)n(C(=O)c2ccccc2)c1=O` is higher in Selectivity index: 1.02 for the first, 2.46 for the second.

For `NC(=O)c1ncn([C@@H]2O[C@H](CO)[C@@H](O)[C@H]2O)n1` [RIBAVIRIN], the Selectivity index was 5.58.

System: Vesicular stomatitis virus
Assay: Selectivity index as the ratio of CC50/EC50 against Vesicular stomatitis virus
Assay type: functional
Details: not given

First: CC(C)[C@H](NC(=O)OC(C)(C)C)c1cc(Cn2ccc(=O)n(C(=O)c3ccccc3)c2=O)on1
Second: Cc1cn(Cc2cc([C@H](Cc3ccccc3)NC(=O)OC(C)(C)C)no2)c(=O)n(C(=O)c2ccccc2)c1=O
The Selectivity index of the first is lower: 1.25 for the first, 3.29 for the second.

`NC(=O)c1ncn([C@@H]2O[C@H](CO)[C@@H](O)[C@H]2O)n1` [RIBAVIRIN] gave a Selectivity index of 27.26.

System: Vesicular stomatitis virus
Assay: Tested for its anti-polio activity against Vesicular stomatitis virus
Assay type: functional, organism-based
Details: not given

Compared with `CC(C)[C@H](NC(=O)OC(C)(C)C)c1cc(Cn2ccc(=O)n(C(=O)c3ccccc3)c2=O)on1`, `Cc1cn(Cc2cc([C@H](Cc3ccccc3)NC(=O)OC(C)(C)C)no2)c(=O)n(C(=O)c2ccccc2)c1=O` is 10-fold lower in EC50: 80 µg/mL (≈ 171 µM) for the first, 7.94 µg/mL (≈ 15 µM) for the second.

Work on `NC(=O)c1ncn([C@@H]2O[C@H](CO)[C@@H](O)[C@H]2O)n1` [RIBAVIRIN] yielded an EC50 of 15.6 µg/mL (≈ 64 µM).
